{"source": "patent US10292970B2", "about": "“Heteroaryl-substituted imidazo[1,2-A]pyridines and their use” (BAYER PHARMA AKTIENGESELLSCHAFT, priority 2014, dated 2019)", "system": "recombinant guanylate cyclase reporter cell line", "experiment": "Effect on a recombinant guanylate cyclase reporter cell line", "format": "cell-based", "conditions": "in some cases mean values from individual determinations, read-out: MEC (minimum effective concentration)", "description": "B-2. Effect on a Recombinant Guanylate Cyclase Reporter Cell Line\nThe cellular activity of the compounds according to the invention is determined using a recombinant guanylate cyclase reporter cell line, as described in F. Wunder et al., Anal. Biochem. 339, 104-112 (2005).\nRepresentative MEC values (MEC=minimum effective concentration) for the compounds of the invention are shown in the table below (in some cases as mean values from individual determinations): […]", "note": "Counter-ions that a name gives are not always drawn."}
{"smiles": "Cc1cc(OCc2c(F)ccc(F)c2F)c2nc(C)c(-c3nccc(N4CCCC4)n3)n2c1", "note": "[Example 16, 2,6-Dimethyl-3-[4-(pyrrolidin-1-yl)pyrimidin-2-yl]-8-[(2,3,6-trifluorobenzyl)oxy]imidazo[1,2-a]pyridine trifluoroacetate]", "values": [{"measurement": "minimal effective concentration", "value": 3, "unit": "µM"}]}
{"smiles": "Cc1cc(OCc2c(F)cccc2F)c2nc(C)c(-c3nc(N)nc(N(C)C)n3)n2c1", "note": "[Example 8, 6-{8-[(2,6-Difluorobenzyl)oxy]-2,6-dimethylimidazo[1,2-a]pyridin-3-yl}-N, N-dimethyl-1,3,5-triazine-2,4-diamine]", "values": [{"measurement": "minimal effective concentration", "value": 0.3, "unit": "µM"}]}
{"smiles": "CC(=O)Nc1cccc(-c2c(C)nc3c(OCc4ncccc4F)cc(Cl)cn23)c1", "note": "[Example 20, N-(3-{6-Chloro-8-[(3-fluoropyridin-2-yl)methoxy]-2-methylimidazo[1,2-a]pyridin-3-yl}phenyl)acetamide]", "values": [{"measurement": "minimal effective concentration", "value": 0.3, "unit": "µM"}]}
{"smiles": "COCCNc1ccc(-c2c(C)nc3c(OCc4c(F)cccc4F)cccn23)cn1", "note": "[Example 2]", "values": [{"measurement": "minimal effective concentration", "value": 0.1, "unit": "µM"}]}
{"smiles": "Cc1cc(OCc2c(F)cccc2F)c2nc(C)c(-c3cc(NCC(C)(C)N)ncc3F)n2c1", "note": "[Example 10, N′-(4-{8-[(2,6-Difluorobenzyl)oxy]-2,6-dimethylimidazo[1,2-a]pyridin-3-yl}-5-fluoropyridin-2-yl)-2-methylpropane-1,2-diamine]", "values": [{"measurement": "minimal effective concentration", "value": 0.1, "unit": "µM"}]}
{"smiles": "CCN(C)c1ccc(-c2c(C)nc3c(OCc4c(F)cccc4F)cccn23)cn1", "note": "[Example 3]", "values": [{"measurement": "minimal effective concentration", "value": 0.2, "unit": "µM"}]}
{"smiles": "Cc1nc2c(OCc3c(F)cccc3F)cccn2c1-c1ccc(NCc2ccccc2)nc1", "note": "[Example 1, N-Benzyl-5-{8-[(2,6-difluorobenzyl)oxy]-2-methylimidazo[1,2-a]pyridin-3-yl}pyridine-2-amine]", "values": [{"measurement": "minimal effective concentration", "value": 0.1, "unit": "µM"}]}
{"smiles": "Cc1nc2c(OCc3c(F)cccc3F)cccn2c1-c1cnc(N2CCN(C)CC2)nc1", "note": "[Example 6, 8-[(2,6-Difluorobenzyl)oxy]-2-methyl-3-[2-(4-methylpiperazin-1-yl)pyrimidin-5-yl]imidazo[1,2-a]pyridine]", "values": [{"measurement": "minimal effective concentration", "value": 10, "unit": "µM"}]}
{"smiles": "Cc1nc2c(OCc3c(F)cccc3F)cccn2c1-c1ccc(N2CC(C)OC(C)C2)nc1", "note": "(stereo not drawn) [Example 4]", "values": [{"measurement": "minimal effective concentration", "value": 1, "unit": "µM"}]}
{"smiles": "CC(=O)Nc1cccc(-c2c(C)nc3c(OCC4CCCCC4)cccn23)c1", "note": "[Example 19, N-{3-[8-(Cyclohexylmethoxy)-2-methylimidazo[1,2-a]pyridin-3-yl]phenyl}acetamide]", "values": [{"measurement": "minimal effective concentration", "value": 0.2, "unit": "µM"}]}
{"smiles": "Cc1nc2c(OCc3c(F)cccc3F)cccn2c1-c1ccc(Nc2ccccc2)nc1", "note": "[Example 5]", "values": [{"measurement": "minimal effective concentration", "value": 3, "unit": "µM"}]}
{"smiles": "Cc1cc(OCc2c(F)cccc2F)c2nc(C)c(-c3nc(N)nc(N)n3)n2c1", "note": "[Example 7, 6-{8-[(2,6-Difluorobenzyl)oxy]-2,6-dimethylimidazo[1,2-a]pyridin-3-yl}-1,3,5-triazine-2,4-diamine]", "values": [{"measurement": "minimal effective concentration", "value": 0.3, "unit": "µM"}]}
{"smiles": "CC(=O)Nc1cccc(-c2c(C)nc3c(OCc4c(F)cccc4F)cc(C)cn23)c1", "note": "[Example 15, N-(3-{8-[(2,6-Difluorobenzyl)oxy]-2,6-dimethylimidazo[1,2-a]pyridin-3-yl}phenyl)acetamide]", "values": [{"measurement": "minimal effective concentration", "value": 0.02, "unit": "µM"}]}
{"smiles": "Cc1cc(OCc2c(F)cccc2F)c2nc(C)c(-c3ccnc(N4CCNCC4)c3)n2c1", "note": "[Example 13, 8-[(2,6-Difluorobenzyl)oxy]-2,6-dimethyl-3-[2-(piperazin-1-yl)pyridin-4-yl]imidazo[1,2-a]pyridine]", "values": [{"measurement": "minimal effective concentration", "value": 0.2, "unit": "µM"}]}
{"smiles": "CCCNc1nc(N)nc(-c2c(C)nc3c(OCc4c(F)cccc4F)cc(C)cn23)n1", "note": "[Example 9, 6-{8-[(2,6-Difluorobenzyl)oxy]-2,6-dimethylimidazo[1,2-a]pyridin-3-yl}-N-propyl-1,3,5-triazine-2,4-diamine]", "values": [{"measurement": "minimal effective concentration", "value": 0.3, "unit": "µM"}]}
{"smiles": "Cc1nc2c(OCc3c(F)cccc3F)cccn2c1-c1nc(Cl)nc(NCC(C)(C)N)n1", "note": "[Example 11, N′-(4-Chloro-6-{8-[(2,6-difluorobenzyl)oxy]-2-methylimidazo[1,2-a]pyridin-3-yl}-1,3,5-triazin-2-yl)-2-methylpropane-1,2-diamine]", "values": [{"measurement": "minimal effective concentration", "value": 0.3, "unit": "µM"}]}
{"smiles": "Cc1cc(OCc2c(F)cccc2F)c2nc(C)c(-c3cccc(N4CCCC4)c3)n2c1", "note": "[Example 14, 8-[(2,6-Difluorobenzyl)oxy]-2,6-dimethyl-3-[3-(pyrrolidin-1-yl)phenyl]imidazo[1,2-a]pyridine]", "values": [{"measurement": "minimal effective concentration", "value": 6.5, "unit": "µM"}]}
{"smiles": "Cc1nc2c(OCc3c(F)cccc3F)cccn2c1-c1ncnc(NCC(C)(N)CCC(F)(F)F)n1", "note": "(single isomer, unassigned; enantiomer b) [Example 12, ent-N^1-(4-{8-[(2,6-Difluorobenzyl)oxy]-2-methylimidazo[1,2-a]pyridin-3-yl}-1,3,5-triazin-2-yl)-5,5,5-trifluoro-2-methylpentane-1,2-diamine (enantiomer B)]", "values": [{"measurement": "minimal effective concentration", "value": 1, "unit": "µM"}]}
